# Like-named read-outs stand apart in the source and are kept apart here.
# What was measured:
# Test in all cases: Dundee kinase screen re-test (standard format and 4 hour pre-incubation)
# Assay type in all cases: biochemical
# [1] = molecular target: PAK4 (Homo sapiens, UniProt O96013); conditions: PAK4, 0.5µM
# How it was run: (§1)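 Selectivity panel of 131 protein kinases, inhibitor tested at a single concentration of 1 µM; values are % kinase activity remaining, mean of duplicates. Re-test of selected kinases used 0.5 µM in the standard format and again after a 4 hour pre-incubation with the inhibitor.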
# [2] = molecular target: MLK1 (Homo sapiens, UniProt P80192); conditions: MLK1, 0.5µM
# How it was run: as §1
# [3] = molecular target: T1, PDK1 (Homo sapiens, UniProt O15530); conditions: PDK1, 0.5µM
# T1 sequence (O15530 1-556): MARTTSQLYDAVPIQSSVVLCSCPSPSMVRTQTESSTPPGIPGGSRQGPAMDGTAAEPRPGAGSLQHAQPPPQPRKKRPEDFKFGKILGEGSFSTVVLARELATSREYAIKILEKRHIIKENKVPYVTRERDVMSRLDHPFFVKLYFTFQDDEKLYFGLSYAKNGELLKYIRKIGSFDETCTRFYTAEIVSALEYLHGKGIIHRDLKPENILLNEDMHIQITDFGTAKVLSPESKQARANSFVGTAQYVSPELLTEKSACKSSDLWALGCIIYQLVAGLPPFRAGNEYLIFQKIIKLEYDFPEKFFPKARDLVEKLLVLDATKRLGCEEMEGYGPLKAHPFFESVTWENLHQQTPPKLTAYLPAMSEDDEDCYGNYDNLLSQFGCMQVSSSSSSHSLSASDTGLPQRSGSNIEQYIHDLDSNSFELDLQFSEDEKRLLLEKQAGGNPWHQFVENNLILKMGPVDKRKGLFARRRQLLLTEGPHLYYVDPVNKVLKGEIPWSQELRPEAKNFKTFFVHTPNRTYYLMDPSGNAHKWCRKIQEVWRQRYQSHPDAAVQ
# How it was run: as §1
# [4] = molecular target: IR (Homo sapiens, UniProt P06213)
# How it was run: as §1
# [5] = molecular target: T2, TTK (Homo sapiens, UniProt P33981)
# T2 sequence (P33981 1-857): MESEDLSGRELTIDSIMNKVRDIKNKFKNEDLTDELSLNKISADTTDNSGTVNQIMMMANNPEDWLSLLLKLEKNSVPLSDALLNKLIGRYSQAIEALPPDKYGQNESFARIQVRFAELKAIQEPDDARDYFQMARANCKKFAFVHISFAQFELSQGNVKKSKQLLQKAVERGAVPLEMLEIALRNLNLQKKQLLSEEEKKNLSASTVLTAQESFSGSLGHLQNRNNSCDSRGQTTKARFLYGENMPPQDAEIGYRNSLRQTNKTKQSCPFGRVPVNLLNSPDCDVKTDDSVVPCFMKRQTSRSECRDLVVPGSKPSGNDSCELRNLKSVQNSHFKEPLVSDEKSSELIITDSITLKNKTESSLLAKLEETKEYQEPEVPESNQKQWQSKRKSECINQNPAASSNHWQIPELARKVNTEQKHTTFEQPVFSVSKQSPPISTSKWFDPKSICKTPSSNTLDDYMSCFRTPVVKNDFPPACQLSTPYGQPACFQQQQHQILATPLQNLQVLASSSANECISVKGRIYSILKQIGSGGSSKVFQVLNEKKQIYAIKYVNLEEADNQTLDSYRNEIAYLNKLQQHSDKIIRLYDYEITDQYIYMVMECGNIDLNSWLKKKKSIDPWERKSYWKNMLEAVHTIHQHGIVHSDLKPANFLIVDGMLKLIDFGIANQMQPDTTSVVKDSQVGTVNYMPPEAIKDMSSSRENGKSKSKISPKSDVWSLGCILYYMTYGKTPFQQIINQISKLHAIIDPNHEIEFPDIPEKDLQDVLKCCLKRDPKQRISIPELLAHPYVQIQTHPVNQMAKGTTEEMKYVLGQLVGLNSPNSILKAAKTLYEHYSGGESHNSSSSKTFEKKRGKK
# How it was run: as §1
# [6] = molecular target: BTK (Homo sapiens, UniProt Q06187)
# How it was run: as §1
# [7] = 4hr RT preincubation, read-out: %Remaining activity at 0.5µM NU6300 - 4hr RT preincubation
# [8] = usual format, read-out: %Remaining activity at 0.5µM NU6300 - Usual assay format
# IR, sequence (P06213 28-1382): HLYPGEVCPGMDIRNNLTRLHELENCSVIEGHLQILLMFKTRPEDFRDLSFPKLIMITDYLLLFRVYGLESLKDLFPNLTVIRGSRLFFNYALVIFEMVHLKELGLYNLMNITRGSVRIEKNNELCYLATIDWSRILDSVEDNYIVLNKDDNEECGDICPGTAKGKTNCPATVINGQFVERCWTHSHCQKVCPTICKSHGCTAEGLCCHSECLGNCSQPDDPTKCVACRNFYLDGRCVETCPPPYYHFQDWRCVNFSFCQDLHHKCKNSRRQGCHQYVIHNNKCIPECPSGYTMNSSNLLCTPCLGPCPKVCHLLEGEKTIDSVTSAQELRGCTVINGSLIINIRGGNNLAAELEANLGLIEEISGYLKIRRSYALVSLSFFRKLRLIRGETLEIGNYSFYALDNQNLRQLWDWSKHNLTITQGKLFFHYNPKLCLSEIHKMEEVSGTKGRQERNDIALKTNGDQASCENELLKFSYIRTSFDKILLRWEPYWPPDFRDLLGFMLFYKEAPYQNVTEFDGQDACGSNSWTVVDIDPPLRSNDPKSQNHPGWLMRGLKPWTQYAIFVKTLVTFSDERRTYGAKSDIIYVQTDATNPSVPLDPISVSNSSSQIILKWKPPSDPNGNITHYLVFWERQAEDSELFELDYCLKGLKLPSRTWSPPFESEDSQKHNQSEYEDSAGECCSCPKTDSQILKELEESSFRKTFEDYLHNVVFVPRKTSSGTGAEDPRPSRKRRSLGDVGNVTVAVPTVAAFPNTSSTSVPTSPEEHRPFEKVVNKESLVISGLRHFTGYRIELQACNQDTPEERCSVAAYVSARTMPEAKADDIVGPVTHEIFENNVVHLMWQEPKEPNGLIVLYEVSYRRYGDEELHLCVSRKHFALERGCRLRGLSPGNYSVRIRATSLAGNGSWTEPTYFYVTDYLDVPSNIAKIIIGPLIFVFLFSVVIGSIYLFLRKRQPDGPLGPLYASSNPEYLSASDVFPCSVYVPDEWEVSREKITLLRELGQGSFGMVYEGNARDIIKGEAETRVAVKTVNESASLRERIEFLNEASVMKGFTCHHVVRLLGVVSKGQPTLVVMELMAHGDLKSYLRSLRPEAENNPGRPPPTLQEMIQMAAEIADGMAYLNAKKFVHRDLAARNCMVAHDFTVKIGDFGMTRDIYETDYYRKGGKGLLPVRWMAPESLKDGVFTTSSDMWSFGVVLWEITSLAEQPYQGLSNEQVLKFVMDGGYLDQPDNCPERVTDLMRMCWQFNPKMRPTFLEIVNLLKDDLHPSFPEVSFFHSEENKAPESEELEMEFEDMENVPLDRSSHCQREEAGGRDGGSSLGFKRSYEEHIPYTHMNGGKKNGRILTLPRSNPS
# MLK1, sequence (P80192 whole entry): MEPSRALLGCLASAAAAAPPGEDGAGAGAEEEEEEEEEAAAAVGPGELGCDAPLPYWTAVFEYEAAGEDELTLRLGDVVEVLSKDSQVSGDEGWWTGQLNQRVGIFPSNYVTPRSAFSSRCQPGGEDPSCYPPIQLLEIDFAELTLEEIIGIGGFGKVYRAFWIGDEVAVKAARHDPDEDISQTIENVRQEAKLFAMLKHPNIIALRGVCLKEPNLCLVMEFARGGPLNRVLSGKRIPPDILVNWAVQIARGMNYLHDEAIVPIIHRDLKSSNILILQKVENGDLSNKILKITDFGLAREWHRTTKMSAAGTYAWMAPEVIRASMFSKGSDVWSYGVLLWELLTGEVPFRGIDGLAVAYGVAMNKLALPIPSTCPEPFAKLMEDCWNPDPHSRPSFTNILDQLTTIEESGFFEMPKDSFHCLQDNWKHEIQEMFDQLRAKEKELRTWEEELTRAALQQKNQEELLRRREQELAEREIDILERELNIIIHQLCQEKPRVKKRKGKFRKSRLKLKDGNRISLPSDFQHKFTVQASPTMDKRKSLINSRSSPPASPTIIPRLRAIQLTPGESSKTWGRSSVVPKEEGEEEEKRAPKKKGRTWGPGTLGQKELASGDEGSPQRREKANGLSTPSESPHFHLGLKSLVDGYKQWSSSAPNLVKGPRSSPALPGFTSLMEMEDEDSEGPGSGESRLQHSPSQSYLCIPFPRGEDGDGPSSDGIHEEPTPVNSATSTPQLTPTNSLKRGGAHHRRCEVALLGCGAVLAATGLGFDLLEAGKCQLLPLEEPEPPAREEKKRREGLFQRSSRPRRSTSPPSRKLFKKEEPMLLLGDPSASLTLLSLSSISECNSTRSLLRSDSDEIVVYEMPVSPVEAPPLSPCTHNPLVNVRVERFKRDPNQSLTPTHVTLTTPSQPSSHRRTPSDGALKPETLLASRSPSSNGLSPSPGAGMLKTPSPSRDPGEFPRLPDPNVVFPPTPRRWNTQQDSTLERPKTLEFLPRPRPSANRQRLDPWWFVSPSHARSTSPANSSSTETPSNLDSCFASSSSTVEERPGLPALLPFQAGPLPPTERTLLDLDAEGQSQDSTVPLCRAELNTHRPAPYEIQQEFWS
# PAK4, sequence (O96013 whole entry): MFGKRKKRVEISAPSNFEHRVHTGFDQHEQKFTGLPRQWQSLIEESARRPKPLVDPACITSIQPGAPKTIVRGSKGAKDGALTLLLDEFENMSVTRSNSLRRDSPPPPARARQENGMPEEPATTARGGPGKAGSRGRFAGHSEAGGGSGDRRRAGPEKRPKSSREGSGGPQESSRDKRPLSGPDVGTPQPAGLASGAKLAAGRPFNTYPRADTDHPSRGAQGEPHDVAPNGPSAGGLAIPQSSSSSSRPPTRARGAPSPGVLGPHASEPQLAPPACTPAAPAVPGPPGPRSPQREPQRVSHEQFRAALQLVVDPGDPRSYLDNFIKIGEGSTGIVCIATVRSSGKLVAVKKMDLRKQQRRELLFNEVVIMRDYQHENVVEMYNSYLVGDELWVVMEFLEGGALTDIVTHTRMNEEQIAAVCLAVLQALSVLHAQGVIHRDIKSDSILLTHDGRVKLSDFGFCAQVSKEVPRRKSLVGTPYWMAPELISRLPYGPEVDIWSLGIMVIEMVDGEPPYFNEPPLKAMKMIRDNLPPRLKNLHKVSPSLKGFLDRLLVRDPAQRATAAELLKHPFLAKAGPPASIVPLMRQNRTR
# BTK, sequence (Q06187 whole entry): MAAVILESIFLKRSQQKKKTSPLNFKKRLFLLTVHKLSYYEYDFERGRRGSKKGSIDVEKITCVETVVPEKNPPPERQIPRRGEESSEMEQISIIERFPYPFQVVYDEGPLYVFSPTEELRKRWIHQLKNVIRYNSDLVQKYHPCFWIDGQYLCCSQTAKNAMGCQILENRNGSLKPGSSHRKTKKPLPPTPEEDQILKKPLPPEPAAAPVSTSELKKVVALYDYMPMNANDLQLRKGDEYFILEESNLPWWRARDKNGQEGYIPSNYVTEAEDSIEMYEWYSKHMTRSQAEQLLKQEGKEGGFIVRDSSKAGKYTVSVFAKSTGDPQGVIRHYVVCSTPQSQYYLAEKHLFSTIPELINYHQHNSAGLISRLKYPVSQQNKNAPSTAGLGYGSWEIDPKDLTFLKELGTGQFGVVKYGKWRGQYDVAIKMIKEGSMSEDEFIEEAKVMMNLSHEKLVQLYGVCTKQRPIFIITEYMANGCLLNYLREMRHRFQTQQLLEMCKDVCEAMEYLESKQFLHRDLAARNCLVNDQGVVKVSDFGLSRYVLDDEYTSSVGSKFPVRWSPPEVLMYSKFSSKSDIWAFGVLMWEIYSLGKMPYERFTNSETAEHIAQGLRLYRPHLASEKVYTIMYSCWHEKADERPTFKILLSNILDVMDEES
smiles,measurement,setting,value
"C=CS(=O)(=O)c1ccc(Nc2nc(OCC3CCCCC3)c3nc[nH]c3n2)cc1 [NU6300, 6-(cyclohexylmethoxy)-N-(4-(vinylsulfonyl)phenyl)-9H-purin-2-amine]",remaining activity at 0.5 µM,[1]; [7],82%
same,remaining activity at 0.5 µM,[1]; [8],34%
same,remaining activity at 0.5 µM,[2]; [7],29%
same,remaining activity at 0.5 µM,[2]; [8],4%
same,remaining activity at 0.5 µM,[3]; [7],40%
same,remaining activity at 0.5 µM,[3]; [8],29%
same,remaining activity at 0.5 µM,[4]; [7],58%
same,remaining activity at 0.5 µM,[4]; [8],48%
same,remaining activity at 0.5 µM,[5]; [7],47%
same,remaining activity at 0.5 µM,[5]; [8],41%
same,remaining activity at 0.5 µM,[6]; [7],28%
same,remaining activity at 0.5 µM,[6]; [8],18%

# Source: publication PMC4579270, “Identification and Characterization of an Irreversible Inhibitor of CDK2” (Chemistry & Biology, 2015)
